This is an account of results in patent US20190175785A1, “SILK FIBROIN SYSTEMS FOR ANTIBIOTIC DELIVERY” (Trustees of Tufts College, priority 2009, published 2019).

One data set deals with E. coli ATCC 25922. The settings on record: E. coli ATCC 25922, NCCLS (2000); cited from earlier work.
A further data set deals with S. aureus ATCC 25923. The settings on record: S. aureus ATCC 25923, NCCLS (2000); cited from earlier work.
A short description of data set [1]: Long-term stability study, residual activity of stored penicillin. The note with it: stored at 25° C. and 37° C. In kind it is physicochemical. The protocol:
To determine if incorporation into silk films would have a similar stabilizing effect to that observed for enzymes, a long-term stability study was carried out comparing the residual activity of penicillin stored in 8% (w/v) silk films or in solution at 4° C. (refrigeration), 25° C. (room temperature) and 37° C. (body temperature).
Stability was also characterized for dry penicillin powder stored at 4° C., 25° C., and 37° C. Comparison of the stability of penicillin stored in silk films, in solution and in dry powder format over 60 days is shown in FIG. 14.

The conditions of data set [2]: cited from earlier work.

≈ marks a conversion by molar mass, not a printed value. Read-outs that look alike come from different tables or passages of the source.

Broadly, the MIC is the lowest concentration found to suppress growth. With gentamicin, the values for the minimal inhibitory concentration (MIC) with E. coli ATCC 25922 and with S. aureus ATCC 25923 were 0.5 µg/mL and 0.25 µg/mL, respectively.

As to penicillin, the “stability of penicillin in solution” value in data set [1] is recorded as “rapidly declines”. Also, the “time of breakdown in solution” value in data set [2] (37° C.) is no more than 24 h; in data set [2] (room temperature (25° C.)), “within weeks”.

As for `Cc1nnc(SCC2=C(C(=O)O)N3C(=O)[C@@H](NC(=O)Cn4cnnn4)[C@H]3SC2)s1` [cefazolin], the minimal inhibitory concentration (MIC) was 1.0 µg/mL (≈ 2.2 µM) in the data set on E. coli ATCC 25922 and 0.25 µg/mL (≈ 0.55 µM) with S. aureus ATCC 25923.
